The values that follow come from patent US8933016B2, “Metallodrugs having improved pharmacological properties and methods of manufacture and use thereof” (priority 2012, dated 2015).

Data set [1] has as its system E. coli (ATCC 25922). The data set can be described thus: Protein oxidation, quantitation of protein carbonyls in E. coli. It counts as cell-based. The following applies: 100 mM.
The subject of data set [2] is E. coli O157:H7, BAA-1883 (Ec F).
Data set [3] relates to S. pneumoniae, 49619 (Sp).
The nature of data set [4]: Cytotoxicity toward human Huh7 liver cells.
For data set [5], the system named is H. influenzae, 49247 (Hi).
The subject of data set [6] is K. pneumonia, 700603 (Kp). The class given is cell-based. The note with it: Mueller Hinton Broth.
In data set [7] the test system is E. coli, 25922 (Ec).
Data set [8] relates to A. baumanii, BAA-747 (Ab).
For data set [9], the system named is B. cepacia, 25416 (Bc).
Data set [10] deals with MRSA, 43300. The following applies: Mueller Hinton Broth.
The subject of data set [11] is S. aureus, 29213 (Sa).
Data set [12] relates to E. faecium, 700221 (Ef). The following applies: Mueller Hinton Broth.
In data set [13] the test system is P. aeuginosa, 27583 (Pa).
Data set [14] is described as follows: in vitro. The note with it: human.

In brackets after ≈: the same amount, converted by molar mass. Read-outs that look alike come from different tables or passages of the source. Ends that are not written are not given here. Peptide text beside a SMILES is read from it. * marks the point of attachment. X4 = COCCOCCOCCOCCOCCOCCOCCOCCOCCOCCOCCOCCOCCOCCOCCOCCOCCOCCOCCOCCOCCOCCOCCOCCOCCOCCOCCOCCOCCOCCOCCOCCOCCOCCOCCOCCOCCOCCOCCOCCOCCOCCOCCOCCOCCOCCOCCOCCNC(=O)CCN1C(=O)CC(*)C1=O; X2 = COCCOCCOCCOCCOCCOCCOCCOCCOCCOCCOCCOCCOCCOCCOCCOCCOCCOCCOCCOCCOCCOCCOCCOCCNC(=O)CCN1C(=O)CC(*)C1=O; X1 = COCCOCCOCCOCCOCCOCCOCCOCCOCCOCCOCCOCCNC(=O)CCN1C(=O)CC(*)C1=O A value given as a limit tells only on which side of the number the result lay.

On to `OO` [H2O2, Hydrogen Peroxide], for which the “Protein Carbonyls (nmol/mg protein)” value in [1] (2 hours (PEP 188 table)) stood at 0.87 nmol/mg protein; in data set [1] (2 hours, average of 2 separate experiments (PEP 189 table)), 0.44 nmol/mg protein.
With `CC[C@H](C)[C@H](NC(=O)[C@H](CCCCN)NC(=O)[C@H](Cc1c[nH]c2ccccc12)NC(=O)[C@H](CCCNC(=N)N)NC(=O)[C@H](CCCNC(=N)N)NC(=O)[C@H](Cc1c[nH]cn1)NC(=O)CNC(=O)CN)C(=O)N[C@H](C(=O)N[C@H](C(=O)N[C@H](C(=O)N[C@@H](CCCNC(=N)N)C(=O)N[C@@H](Cc1c[nH]c2ccccc12)C(=O)N[C@@H](CCCNC(=N)N)C(=O)N[C@@H](CCCNC(=N)N)C(=O)NCC(=O)NCC(=O)N[C@@H](CSC1CC(=O)N(CCC(=O)NCCOCCOCCOCCOCCOCCOCCOCCOCCOCCOCCOCCOCCOCCOCCOCCOCCOCCOCCOCCOCCOCCOCCOCCOC)C1=O)C(=O)O)[C@@H](C)CC)C(C)C)C(C)C` (stereo partly drawn) [PEP 314 PEG 24] (H-GGHRRWKIVVIRWRRGGC(X2)-OH; C-terminus assumed), in data set [2] (O157:H7), the “MIC Ec F” value is 9.3 µM (≈ 31.9 µg/mL). Moreover, in [3] (49619 (Sp)), the “MIC Sp” value was found to be 4.7 µM (≈ 16.1 µg/mL). For the same compound, in data set [4], the IC50 (in general, the midpoint of a concentration-inhibition curve) is over 200 µM.
On to `CC[C@H](C)[C@H](NC(=O)[C@H](CCCCN)NC(=O)[C@H](Cc1c[nH]c2ccccc12)NC(=O)[C@H](CCCNC(=N)N)NC(=O)[C@H](CCCNC(=N)N)NC(=O)[C@H](Cc1c[nH]cn1)NC(=O)CNC(=O)CN)C(=O)N[C@H](C(=O)N[C@H](C(=O)N[C@H](C(=O)N[C@@H](CCCNC(=N)N)C(=O)N[C@@H](Cc1c[nH]c2ccccc12)C(=O)N[C@@H](CCCNC(=N)N)C(=O)N[C@@H](CCCNC(=N)N)C(=O)NCC(=O)NCC(=O)N[C@@H](CSC1CC(=O)N(CCC(=O)NCCOCCOCCOCCOCCOCCOCCOCCOCCOCCOCCOCCOCCOCCOCCOCCOCCOCCOCCOCCOCCOCCOCCOCCOCCOCCOCCOCCOCCOCCOCCOCCOCCOCCOCCOCCOCCOCCOCCOCCOCCOCCOCCOCCOCCOCCOCCOCCOC)C1=O)C(=O)O)[C@@H](C)CC)C(C)C)C(C)C` (stereo partly drawn) [PEP 314 PEG 48] (H-GGHRRWKIVVIRWRRGGC(X4)-OH; C-terminus assumed), for which, in data set [3] (49619 (Sp)), the “MIC Sp” value was 7.1 µM (≈ 31.9 µg/mL). The IC50 in data set [4] was over 200 µM.
For the compound `CC[C@H](C)[C@H](NC(=O)[C@H](Cc1c[nH]cn1)NC(=O)CNC(=O)CN)C(=O)N[C@@H](CC(C)C)C(=O)N1CCC[C@H]1C(=O)N[C@@H](Cc1c[nH]c2ccccc12)C(=O)N[C@@H](CCCCN)C(=O)N[C@@H](Cc1c[nH]c2ccccc12)C(=O)N1CCC[C@H]1C(=O)N[C@@H](Cc1c[nH]c2ccccc12)C(=O)N[C@@H](Cc1c[nH]c2ccccc12)C(=O)N1CCC[C@H]1C(=O)N[C@@H](Cc1c[nH]c2ccccc12)C(=O)N[C@@H](CCCNC(=N)N)C(=O)N[C@@H](CCCNC(=N)N)C(=O)NCC(=O)NCC(=O)N[C@@H](CS)C(=O)O` [PEP 316, GGHILPWKWPWWPWRRGGC], the “MIC Hi” value in [5] worked out at 13.5 µM (≈ 32.1 µg/mL).
In the case of `CC[C@H](C)[C@H](NC(=O)[C@H](Cc1c[nH]cn1)NC(=O)CNC(=O)CN)C(=O)N[C@@H](CCCNC(=N)N)C(=O)N[C@@H](CCCNC(=N)N)C(=O)N[C@H](C(=O)N[C@H](C(=O)N[C@@H](CCCNC(=N)N)C(=O)N[C@@H](CCCCN)C(=O)N[C@H](C(=O)N[C@H](C(=O)N[C@@H](Cc1c[nH]cn1)C(=O)N[C@H](C(=O)N[C@H](C(=O)N[C@@H](CCCCN)C(=O)N[C@@H](CCCCN)C(=O)NCC(=O)NCC(=O)N[C@@H](CSC1CC(=O)N(CCC(=O)NCCOCCOCCOCCOCCOCCOCCOCCOCCOCCOCCOCCOC)C1=O)C(=O)O)[C@@H](C)CC)[C@@H](C)CC)[C@@H](C)CC)[C@@H](C)CC)[C@@H](C)CC)[C@@H](C)CC` (stereo partly drawn) [PEP 318 PEG 12] (H-GGHIRRIIRKIIHIIKKGGC(X1)-OH; C-terminus assumed), in data set [2] (O157:H7), the “MIC Ec F” value came out at 5.4 µM (≈ 16.1 µg/mL). The “MIC Hi” value in data set [5] came out at 2.7 µM (≈ 8.05 µg/mL). Further, the “MIC Kp” value in data set [6] was found to be 21.4 µM (≈ 63.8 µg/mL). Further, the “MIC Sp” value in [3] (49619 (Sp)) was determined as 5.4 µM (≈ 16.1 µg/mL). The “MIC Ec” value in data set [7] (25922 (Ec)) was found to be 10.7 µM (≈ 31.9 µg/mL). In addition, the “MIC Ab” value in [8] (BAA-747) turned out to be 5.4 µM (≈ 16.1 µg/mL). This compound also registered an IC50 in data set [4] of 150 µM. The “MIC Bc” value in data set [9] was 2.7 µM (≈ 8.05 µg/mL).
Regarding DOTA-Ampicillin [DOTAMP], the “MIC Ec F” value in [2] (Mueller Hinton Broth) is 42.5 µM. In addition, the “MIC Ec” value in [7] (Mueller Hinton Broth) came to 42.5 µM. Besides, the “MIC MRSA” value in data set [10] turned out to be 42.5 µM.
Take GGHGEYVLRNWRIVKVATTKAC [PEP 193]: the “MIC MRSA” value in data set [10] was 13 µM.
Regarding GGHGIRRIIRKIIHIIKKGGC [PEP 311], the “MIC Sa” value in [11] (Mueller Hinton Broth) was 7.9 µM. The “MIC Ec F” value in data set [2] (Mueller Hinton Broth) is 4 µM. For the same compound, the “MIC Hi” value in [5] is 31.7 µM. Further, the “MIC Ef” value in [12] came out at 4 µM. For the same compound, the “MIC Kp” value in [6] amounted to 7.9 µM. In addition, the “MIC Pa” value in data set [13] (Mueller Hinton Broth) came out at 15.8 µM. In [3] (Mueller Hinton Broth), the “MIC Sp” value amounted to 15.8 µM. Further, the “MIC Ec” value in [7] (Mueller Hinton Broth) was 7.9 µM. The “MIC Ab” value in [8] (Mueller Hinton Broth) is 2 µM.
As to “GGHGRRWKIVVIRWRRGGC [PEP 321, GGHGRRWKIVVIRWRRGGC]”, the “MIC Ec F” value in data set [2] (Mueller Hinton Broth) is 14.2 µM. In addition, the “MIC Hi” value in data set [5] is 14.2 µM. The “MIC Ef” value in [12] is 7.1 µM. Also, the “MIC Kp” value in data set [6] came to 14.2 µM. Also, the “MIC Sp” value in data set [3] (Mueller Hinton Broth) came out at 1.8 µM. In addition, the “MIC Ab” value in data set [8] (Mueller Hinton Broth) was 28.4 µM. In [10], the “MIC MRSA” value came to 14.2 µM.
With GGHGWRWYCR [PEP 204, GGHGWRWYCR], the “MIC Ec F” value in [2] (Mueller Hinton Broth) is 50 µM. Besides, in data set [12], the “MIC Ef” value turned out to be 25.1 µM. For the same compound, in data set [6], the “MIC Kp” value was 4.7 µM. Also, the “MIC Pa” value in data set [13] (Mueller Hinton Broth) is 25 µM. Besides, the “MIC Ec” value in [7] (Mueller Hinton Broth) came out at 3.1 µM. In addition, the “MIC Ab” value in [8] (Mueller Hinton Broth) came to 25.1 µM. Besides, the “MIC MRSA” value in data set [10] is 6.3 µM.
In the case of GGHGWRWYCRGGK [PEP 323, GGHGWRWYCRGGK], the “MIC Hi” value in [5] turned out to be 1.5 µM. Moreover, the “MIC Kp” value in [6] was found to be 20.9 µM. Besides, the “MIC Pa” value in data set [13] came out at 20.9 µM. Moreover, in data set [7] (25922 (Ec)), the “MIC Ec” value amounted to 20.9 µM. Further, in data set [8] (BAA-747), the “MIC Ab” value was 20.9 µM.
In the case of GGHIRRIIRKIIHIIKKGGC [PEP 318], the “MIC Sa” value in data set [11] (29213 (Sa)) amounted to 14.1 µM. Besides, the “MIC Kp” value in data set [6] amounted to 28.2 µM. In data set [13], the “MIC Pa” value turned out to be 28.2 µM. Further, the IC50 in data set [14] worked out at 41 µM. Moreover, the “MIC Sp” value in [3] (49619 (Sp)) came to 3.5 µM. Besides, in [7] (25922 (Ec)), the “MIC Ec” value turned out to be 7 µM. Further, the “MIC Ab” value in [8] (BAA-747) stood at 7 µM.
Regarding “GGHRRWKIVVIRWRRGGC [PEP 314, GGHRRWKIVVIRWRRGGC]”, the “MIC Sa” value in data set [11] (29213 (Sa)) turned out to be 29.2 µM. The “MIC Hi” value in data set [5] was determined as 3.7 µM. For the same compound, in [6], the “MIC Kp” value was 14.6 µM. For the same compound, the “MIC Pa” value in [13] stood at 14.6 µM. The same compound had an IC50 in data set [14] of 17 µM. Also, the “MIC Sp” value in data set [3] (49619 (Sp)) was 0.9 µM. Moreover, the “MIC Ec” value in data set [7] (25922 (Ec)) is 14.6 µM. The “MIC Ab” value in data set [8] (BAA-747) came out at 7.3 µM.
Regarding GGHTRQARRNRR [PEP 205, GGHTRQARRNRR], in [13], the “MIC Pa” value came to 43.7 µM.
On to GGHWRWYCRGGK [PEP 322, GGHWRWYCRGGK], for which, in [5], the “MIC Hi” value came out at 2.7 µM. For the same compound, the “MIC Kp” value in [6] was found to be 7.6 µM.
